Laboratory results reported in BindingDB's records for doi:10.1021/jm025550h (Abbott Laboratories, 2002).

Key:
[1] = Effective concentration in vitro against rabbit urethra Alpha-1 adrenergic receptor
[2] = Effective concentration in vitro against rabbit urethra Alpha-1A adrenergic receptor

SMILES: COc1ccc(OC)c(C(O)CN)c1 (stereo not drawn)
- EC50 [1]: 7.1 µM

SMILES: CC(N)C(O)c1ccccc1 [(1R, 2S)-2-Amino-1-phenyl-propan-1-ol]
- EC50 [1]: 230 µM

SMILES: CCS(=O)(=O)Nc1cccc(Cc2cnc[nH]2)c1 [ABT-866]
- EC50 [2]: 0.6 µM
